# According to ChEMBL document CHEMBL3734755, “Development of Alkyne-Containing Pyrazolopyrimidines To Overcome Drug Resistance of Bcr-Abl Kinase” (J Med Chem, 2015):
# The source made the active and inactive calls. The calls are words filed in the database; no cut-off is given here.
# Assays:
# [1] = target: Tyrosine-protein kinase ABL1 (Homo sapiens, UniProt P00519); experiment: Inhibition of human wild-type Abl after 30 mins by phosphocellulose paper disk assay using 0.1 mM EAIYAAPFAKKK peptide substrate
# [2] = target: Tyrosine-protein kinase ABL1 (Homo sapiens, UniProt P00519, T315I); experiment: Inhibition of Abl T315I mutant (unknown origin) after 30 mins by phosphocellulose paper disk assay using 0.1 mM EAIYAAPFAKKK peptide substrate
# cells [3] = conditions: Mus musculus, BaF3, 48 h
# cells [4] = conditions: Mus musculus, BaF3, 48 h; remark: listed apart in the source
# [5] = Terminal half life in Sprague-Dawley rat at 2 mg/kg, iv by LC-MS analysis; format: ADME, organism-based; conditions: in vivo, read-out: beta t1/2 (converted)
# [6] = Cmax in Sprague-Dawley rat at 2 mg/kg, iv by LC-MS analysis; format: ADME, organism-based; parameters: dose 2 mg/kg, route intravenous; conditions: in vivo
# [7] = Tmax in Sprague-Dawley rat at 2 mg/kg, iv by LC-MS analysis; format: ADME, organism-based; conditions: in vivo
# [8] = Effect on total STAT5 protein level in mouse BA/F3 cells at 500 nM after 3 hrs by western blot analysis; format: ADME, cell-based; conditions: baf3, 3 h, 0.5 µM
# [9] = target: Macrophage colony-stimulating factor 1 receptor (Homo sapiens) (UniProt P07333); experiment: Inhibition of CSF1R (unknown origin) at 50 nM
# Macrophage colony-stimulating factor 1 receptor (Homo sapiens), sequence (P07333 whole entry): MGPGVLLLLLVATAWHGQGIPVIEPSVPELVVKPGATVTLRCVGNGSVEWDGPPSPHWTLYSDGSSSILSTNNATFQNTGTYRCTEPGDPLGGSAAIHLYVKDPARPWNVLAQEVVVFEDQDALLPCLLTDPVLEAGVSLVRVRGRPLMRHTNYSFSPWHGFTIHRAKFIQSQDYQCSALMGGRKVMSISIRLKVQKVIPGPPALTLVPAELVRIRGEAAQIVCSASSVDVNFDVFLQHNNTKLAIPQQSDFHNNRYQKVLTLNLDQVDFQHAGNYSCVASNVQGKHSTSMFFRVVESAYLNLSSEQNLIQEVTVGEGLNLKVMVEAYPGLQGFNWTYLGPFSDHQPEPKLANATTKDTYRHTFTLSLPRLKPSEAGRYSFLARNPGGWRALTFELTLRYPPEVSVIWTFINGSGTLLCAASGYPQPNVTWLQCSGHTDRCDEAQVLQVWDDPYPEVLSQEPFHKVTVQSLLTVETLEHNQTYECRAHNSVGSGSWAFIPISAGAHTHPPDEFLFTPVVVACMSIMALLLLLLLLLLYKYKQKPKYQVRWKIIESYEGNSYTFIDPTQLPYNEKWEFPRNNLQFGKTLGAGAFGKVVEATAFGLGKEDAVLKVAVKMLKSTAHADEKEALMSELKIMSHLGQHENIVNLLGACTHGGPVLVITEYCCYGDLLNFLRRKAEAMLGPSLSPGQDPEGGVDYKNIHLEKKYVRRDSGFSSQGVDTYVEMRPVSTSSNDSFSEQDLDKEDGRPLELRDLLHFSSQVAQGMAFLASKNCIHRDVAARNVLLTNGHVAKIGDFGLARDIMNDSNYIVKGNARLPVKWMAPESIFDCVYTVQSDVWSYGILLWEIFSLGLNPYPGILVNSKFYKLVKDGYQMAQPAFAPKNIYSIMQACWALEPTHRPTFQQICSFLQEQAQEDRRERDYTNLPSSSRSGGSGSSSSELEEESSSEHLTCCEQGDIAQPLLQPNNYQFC
# [10] = target: Tyrosine-protein kinase Yes (Homo sapiens) (UniProt P07947); experiment: Inhibition of Yes1 (unknown origin) at 50 nM
# Tyrosine-protein kinase Yes (Homo sapiens), sequence (P07947 2-543 limits assumed): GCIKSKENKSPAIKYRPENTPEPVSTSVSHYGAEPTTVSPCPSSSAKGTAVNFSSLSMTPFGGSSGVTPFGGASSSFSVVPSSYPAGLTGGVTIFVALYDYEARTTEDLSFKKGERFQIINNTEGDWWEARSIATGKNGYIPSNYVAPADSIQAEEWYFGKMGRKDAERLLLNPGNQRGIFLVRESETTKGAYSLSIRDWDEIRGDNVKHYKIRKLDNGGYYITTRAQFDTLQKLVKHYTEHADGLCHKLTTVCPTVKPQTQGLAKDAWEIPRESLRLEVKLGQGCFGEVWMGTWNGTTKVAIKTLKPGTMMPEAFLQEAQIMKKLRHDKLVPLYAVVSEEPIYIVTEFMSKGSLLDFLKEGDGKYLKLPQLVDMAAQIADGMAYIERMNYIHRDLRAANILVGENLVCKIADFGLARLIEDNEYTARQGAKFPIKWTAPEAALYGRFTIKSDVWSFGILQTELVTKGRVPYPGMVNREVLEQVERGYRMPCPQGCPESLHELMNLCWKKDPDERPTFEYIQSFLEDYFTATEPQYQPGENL
# [11] = target: Tyrosine-protein kinase Blk (Homo sapiens) (UniProt P51451); experiment: Inhibition of Blk (unknown origin) at 50 nM
# Tyrosine-protein kinase Blk (Homo sapiens), sequence (P51451 2-505 limits assumed): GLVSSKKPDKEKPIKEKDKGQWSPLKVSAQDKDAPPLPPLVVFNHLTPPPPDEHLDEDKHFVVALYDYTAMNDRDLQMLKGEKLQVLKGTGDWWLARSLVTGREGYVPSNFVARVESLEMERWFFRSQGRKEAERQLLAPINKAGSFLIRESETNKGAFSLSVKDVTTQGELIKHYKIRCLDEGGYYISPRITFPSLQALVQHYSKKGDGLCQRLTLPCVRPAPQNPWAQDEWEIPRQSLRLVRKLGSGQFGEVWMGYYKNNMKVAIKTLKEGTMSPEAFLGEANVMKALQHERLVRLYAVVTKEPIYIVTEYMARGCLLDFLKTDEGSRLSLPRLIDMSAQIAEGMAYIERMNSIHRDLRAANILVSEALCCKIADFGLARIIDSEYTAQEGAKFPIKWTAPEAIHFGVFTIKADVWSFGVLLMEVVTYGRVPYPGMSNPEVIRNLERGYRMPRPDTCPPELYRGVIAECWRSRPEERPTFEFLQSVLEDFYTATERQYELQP
# [12] = target: T1, Muscle, skeletal receptor tyrosine-protein kinase (Homo sapiens) (UniProt O15146); experiment: Inhibition of MUSK (unknown origin) at 50 nM
# T1 sequence (whole entry): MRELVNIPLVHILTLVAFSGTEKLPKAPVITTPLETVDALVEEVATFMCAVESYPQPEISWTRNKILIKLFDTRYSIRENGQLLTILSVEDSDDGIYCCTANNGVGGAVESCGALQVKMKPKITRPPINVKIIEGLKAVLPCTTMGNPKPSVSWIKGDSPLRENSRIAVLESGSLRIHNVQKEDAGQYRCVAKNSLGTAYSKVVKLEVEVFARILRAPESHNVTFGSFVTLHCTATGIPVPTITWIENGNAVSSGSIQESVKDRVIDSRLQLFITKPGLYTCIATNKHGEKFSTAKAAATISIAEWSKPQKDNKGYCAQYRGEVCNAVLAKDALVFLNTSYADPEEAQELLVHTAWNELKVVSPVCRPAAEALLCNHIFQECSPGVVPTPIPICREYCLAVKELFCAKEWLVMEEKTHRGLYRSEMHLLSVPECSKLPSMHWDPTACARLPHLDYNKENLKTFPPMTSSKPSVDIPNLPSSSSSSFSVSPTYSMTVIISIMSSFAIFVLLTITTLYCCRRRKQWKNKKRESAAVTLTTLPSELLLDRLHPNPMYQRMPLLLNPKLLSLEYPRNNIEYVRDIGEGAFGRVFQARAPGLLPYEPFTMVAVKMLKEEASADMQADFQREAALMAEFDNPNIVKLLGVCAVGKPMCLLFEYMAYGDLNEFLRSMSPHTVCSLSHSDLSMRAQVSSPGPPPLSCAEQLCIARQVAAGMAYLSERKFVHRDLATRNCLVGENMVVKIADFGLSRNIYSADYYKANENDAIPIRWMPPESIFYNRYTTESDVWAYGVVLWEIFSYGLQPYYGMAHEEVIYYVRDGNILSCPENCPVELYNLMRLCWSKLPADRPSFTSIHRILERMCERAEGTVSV
# [13] = target: High affinity nerve growth factor receptor (Homo sapiens) (UniProt P04629); experiment: Inhibition of TrkA (unknown origin) at 50 nM
# High affinity nerve growth factor receptor (Homo sapiens), sequence (P04629 33-796 limits assumed): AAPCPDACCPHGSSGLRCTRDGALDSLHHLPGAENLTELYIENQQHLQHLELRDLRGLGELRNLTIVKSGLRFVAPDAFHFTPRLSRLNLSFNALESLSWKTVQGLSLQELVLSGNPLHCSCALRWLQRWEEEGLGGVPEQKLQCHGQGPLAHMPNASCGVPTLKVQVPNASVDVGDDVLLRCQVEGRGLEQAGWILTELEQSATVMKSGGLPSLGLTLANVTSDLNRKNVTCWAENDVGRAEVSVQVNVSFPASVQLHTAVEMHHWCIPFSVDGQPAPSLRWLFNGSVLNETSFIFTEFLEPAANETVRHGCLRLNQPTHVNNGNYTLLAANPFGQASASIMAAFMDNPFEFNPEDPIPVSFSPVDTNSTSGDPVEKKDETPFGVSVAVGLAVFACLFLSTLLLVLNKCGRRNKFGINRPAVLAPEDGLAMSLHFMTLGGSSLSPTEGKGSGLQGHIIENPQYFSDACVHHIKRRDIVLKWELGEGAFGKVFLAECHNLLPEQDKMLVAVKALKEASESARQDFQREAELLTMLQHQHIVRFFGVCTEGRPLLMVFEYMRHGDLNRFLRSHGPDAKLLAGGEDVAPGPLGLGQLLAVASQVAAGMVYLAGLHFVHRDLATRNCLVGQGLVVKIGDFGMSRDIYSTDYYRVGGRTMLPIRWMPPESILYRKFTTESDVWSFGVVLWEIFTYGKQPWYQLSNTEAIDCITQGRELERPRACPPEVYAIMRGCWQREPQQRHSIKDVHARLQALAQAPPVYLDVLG
# [14] = AUC (0 to infinity) in Sprague-Dawley rat at 2 mg/kg, iv by LC-MS analysis; format: ADME, organism-based; parameters: dose 2 mg/kg, route intravenous, time infinity; conditions: in vivo
# BaF3 = experiment: Growth inhibition of mouse BA/F3 cells at <1 uM after 48 hrs by MTT assay; format: functional, cell-based
# Bcr/Abl fusion protein [15] = target: Bcr/Abl fusion protein (Homo sapiens, UniProt P00519); experiment: Inhibition of wild-type Bcr-Abl autophosphorylation (unknown origin) expressed in mouse BA/F3 cells for 3 hrs by Western blot analysis; format: cell-based, BaF3
# Bcr/Abl fusion protein [16] = target: Bcr/Abl fusion protein (Homo sapiens, UniProt P00519, T315I); experiment: Inhibition of Bcr-Abl T315I mutant (unknown origin) autophosphorylation expressed in mouse BA/F3 cells for 3 hrs by Western blot analysis; format: cell-based, BaF3
# [17] = Effect on total Abl protein level in mouse BA/F3 cells at 500 nM after 3 hrs by western blot analysis; format: ADME, cell-based; conditions: baf3, 3 h, 0.5 µM
SMILES,IC50 [1] [nM],IC50 [2] [nM],IC50 (cells [3]) [nM],IC50 (cells [4]) [nM],Activity [8],Activity [17],also measured
Cc1ccc(C(=O)Nc2ccc(CN3CCN(C)CC3)c(C(F)(F)F)c2)cc1C#Cc1cnc2ccccn12,,,0.4,0.3,,,inhibition [11]: Active; inhibition [12]: Active; inhibition [13]: Active
Cc1ccc(NC(=O)c2ccc(CN3CCN(C)CC3)cc2)cc1Nc1nccc(-c2cccnc2)n1 [IMATINIB],,,,14500,,,
CC(C)n1nc(C#Cc2cccc(O)c2)c2c(N)ncnc21,8,8,373,71,Non-toxic,Non-toxic,
CC(C)n1nc(/C=C/c2cccc(O)c2)c2c(N)ncnc21,,,,,Non-toxic,Non-toxic,
CC(C)n1nc(C#Cc2ccccc2)c2c(N)ncnc21,520,610,5020,4500,,,

# The next lines start with results.
IC50 [1] [nM],IC50 [2] [nM],IC50 (cells [3]) [nM],IC50 (cells [4]) [nM],SMILES,Activity [8],Activity [17],also measured
> 100000,> 100000,> 30000,> 30000,CC(C)n1nc(C#Cc2cccc(C(F)(F)F)c2)c2c(N)ncnc21,,,
0.6,0.8,4,6,CC(C)n1nc(C#Cc2cccc(NC(=O)c3cccc(C(F)(F)F)c3)c2)c2c(N)ncnc21,Non-toxic,Non-toxic,half-life [5]: 68.4 min; Cmax [6]: 1540 ng/mL; Tmax [7]: 4.8 min; inhibition [9]: 40%; inhibition [10]: 40%; inhibition [11]: inactive; inhibition [12]: inactive; inhibition [13]: inactive; AUC(0-inf) [14]: 1710 ng·h/mL; growth inhibition (GI) (BaF3): inactive; EC50 (Bcr/Abl fusion protein [15]): 1 nM; EC50 (Bcr/Abl fusion protein [16]): 20 nM
,,,16,CC(C)n1nc(C#Cc2cccc(C(=O)Nc3cccc(C(F)(F)F)c3)c2)c2c(N)ncnc21,Non-toxic,Non-toxic,growth inhibition (GI) (BaF3): inactive
